Test results as given in US5935932A, “Bradykinin antagonists containing pentafluorophenylalanine” (University Technology Corporation, priority 1998, dated 1999).
Like-named read-outs stand apart in the source and are kept apart here. Where a SMILES comes first, the peptide text is derived from it. Where no end group is shown, it is not given here. [ ]: non-standard residue; d: D form. dPhe(F5) = N[C@H](Cc1c(F)c(F)c(F)c(F)c1F)C(=O)O; Igl = N[C@H](C(=O)O)C1Cc2ccccc2C1; Hyp = O=C(O)[C@@H]1C[C@@H](O)CN1

Experiments:
BK action = conditions: rabbits; subcutaneous injection; cited from earlier work
hypotensive action of BK = conditions: rats, cited from earlier work
[1] = cited from earlier work
[2] = target: T1, bradykinin receptors in Rat Uterus (Rattus norvegicus, UniProt P25023); experiment: Rat Uterus functional assay; type: cell-based
T1 construct: describes the Rat Uterus assay used to analyze the present compounds; from tissue; host or cells: isolated rat uterus
T1 sequence (P25023 1-396): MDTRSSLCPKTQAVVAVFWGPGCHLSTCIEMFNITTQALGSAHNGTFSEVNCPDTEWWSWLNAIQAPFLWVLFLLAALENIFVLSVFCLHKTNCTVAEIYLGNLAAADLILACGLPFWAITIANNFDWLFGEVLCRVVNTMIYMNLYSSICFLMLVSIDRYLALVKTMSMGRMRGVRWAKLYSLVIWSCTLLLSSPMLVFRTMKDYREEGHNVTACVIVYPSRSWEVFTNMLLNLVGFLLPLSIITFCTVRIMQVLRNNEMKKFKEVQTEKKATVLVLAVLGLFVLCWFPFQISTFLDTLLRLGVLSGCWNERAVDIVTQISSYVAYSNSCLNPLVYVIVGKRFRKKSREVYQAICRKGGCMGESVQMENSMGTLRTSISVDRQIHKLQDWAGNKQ
Excerpt: 4. Rat Uterus functional assay Trautshold, Handbook of Expt. Pharmacol. […] The Trautshold method was used without changes to the parameters. U.S. Pat. No. 4,693,993, at Column 14, line 10 gives a general description of data analysis for this assay. In this table, I=inhibitor, and numbers in parenthesis are pA2. Agonist activity are given as percent BK activity.

[3] = target: T2, bradykinin receptors in Guinea Pig Ileum (Cavia porcellus, UniProt O70526); experiment: Guinea Pig Ileum functional assay; type: cell-based
T2 construct: describes the Guinea Pig Ileum assay used to analyze the present compounds; from tissue; host or cells: isolated guinea pig ileum
T2 sequence (O70526 1-372): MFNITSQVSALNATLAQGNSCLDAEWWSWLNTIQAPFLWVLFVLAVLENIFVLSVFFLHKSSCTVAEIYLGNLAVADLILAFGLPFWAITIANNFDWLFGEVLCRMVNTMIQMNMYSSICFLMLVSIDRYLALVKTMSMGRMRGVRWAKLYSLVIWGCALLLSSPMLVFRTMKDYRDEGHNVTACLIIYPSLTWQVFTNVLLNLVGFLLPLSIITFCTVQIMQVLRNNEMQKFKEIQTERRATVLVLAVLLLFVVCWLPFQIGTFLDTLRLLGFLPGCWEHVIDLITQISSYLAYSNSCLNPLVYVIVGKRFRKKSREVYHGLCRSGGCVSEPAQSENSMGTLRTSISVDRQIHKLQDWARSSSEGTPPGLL
Excerpt: 5. Guinea Pig Ileum functional assay
Trautshold, Handbook of Expt. Pharmacol. Vol 25, Springer Verlag pp 53-55 (1970) describes the Guinea Pig Ileum assay used to analyze the present compounds. The Trautshold method was used without changes to the parameters. U.S. Pat. No. 4,693,993, at Column 14, line 10 gives a general description of data analysis for this assay.
In this table, I=inhibitor, and numbers in parenthesis are pA2. Agonist activity are given as percent BK activity.

[4] = number in parenthesis is pA2, read-out: Ileum, pA2 (I=inhibitor) (converted)
[5] = Ileum, pA2 (I=inhibitor), number in parenthesis is pA2

In the case of “DArg-Arg-Pro-Hyp-Gly-Igl-Ser-DIgl-Oic-Arg [Compound B9430]”, the “duration of block of BK action” value (BK action) is given as “more than 24 hrs”, the bioavailability (hypotensive action of BK; intragastric administration) is given as “low” and the “activity following intragastric administration” value (hypotensive action of BK; intragastric) is given as “active”. The “duration of block of the hypotensive action of BK” value (hypotensive action of BK; single intravenous injection) was “more than four” and the “duration of block of BK action” value (hypotensive action of BK; subcutaneous injection) was 48 h.

For RPPGFSPFR [BK], the plasma half-life ([1]; caused by CPN) is listed as at most 15 s and the “cleavage by ACE on a single passage through the pulmonary circulation” value ([1]; single passage, pulmonary circulation) is listed as “more than 99%”.

In the case of `N=C(N)NCCC[C@@H](N)C(=O)N[C@@H](CCCNC(=N)N)C(=O)N1CCC[C@H]1C(=O)N1C[C@H](O)C[C@H]1C(=O)NCC(=O)N[C@@H](Cc1c(F)c(F)c(F)c(F)c1F)C(=O)N[C@@H](CO)C(=O)N[C@@H](C(=O)N1[C@H](C(=O)N[C@@H](CCCNC(=N)N)C(=O)O)C[C@@H]2CCCC[C@@H]21)C1Cc2ccccc2C1` [Compound B10164, DArg-Arg-Pro-Hyp-Gly-f5f-Ser-DIgl-Oic-Arg], the Kb [2] is reported as 10 nM and the Kb [3, 4] is reported as 63.1 nM.

`N=C(N)NCCC[C@H](NC(=O)[C@@H]1C[C@@H]2CCCC[C@@H]2N1C(=O)[C@@H](Cc1c(F)c(F)c(F)c(F)c1F)NC(=O)[C@H](CO)NC(=O)[C@H](Cc1cccs1)NC(=O)CNC(=O)[C@@H]1CCCN1C(=O)[C@@H]1CCCN1C(=O)[C@H](CCCNC(=N)N)NC(=O)[C@@H](CCCNC(=N)N)NC(=O)[C@H](CCCCN)NC(=O)CCCCCCCCCCC(=O)N[C@@H](CCCCN)C(=O)N[C@H](CCCNC(=N)N)C(=O)N[C@@H](CCCNC(=N)N)C(=O)N1CCC[C@H]1C(=O)N1CCC[C@H]1C(=O)NCC(=O)N[C@@H](Cc1cccs1)C(=O)N[C@@H](CO)C(=O)N[C@H](Cc1c(F)c(F)c(F)c(F)c1F)C(=O)N1[C@H](C(=O)N[C@@H](CCCNC(=N)N)C(=O)O)C[C@@H]2CCCC[C@@H]21)C(=O)O` [Compound B10118, αDDD-(Lys-DArg-Arg-Pro-Pro-Gly-Thi-Ser-Df5f-Oic-Arg)2] gave a Kb [2] of 7.94 nM and a Kb [3, 4] of 5.01 nM.

For `N=C(N)NCCC[C@@H](N)C(=O)N[C@@H](CCCNC(=N)N)C(=O)N1CCC[C@H]1C(=O)N1C[C@H](O)C[C@H]1C(=O)NCC(=O)N[C@H](C(=O)N[C@@H](CO)C(=O)N[C@H](Cc1c(F)c(F)c(F)c(F)c1F)C(=O)N[C@H](C(=O)N[C@@H](CCCNC(=N)N)C(=O)O)C1Cc2ccccc2C1)C1Cc2ccccc2C1` [Compound B10056, DArg-Arg-Pro-Hyp-Gly-Igl-Ser-Df5f-Igl-Arg], the “Uterus, agonist activity as percent BK activity” value (“Uterus … as percent BK activity” below) ([2]; rat uterus, agonist activity) was 9.5% and the Kb [3, 5] was 10 nM.

`N=C(N)NCCC[C@@H](N)C(=O)N[C@@H](CCCNC(=N)N)C(=O)N1CCC[C@H]1C(=O)N[C@@H](C(=O)NCC(=O)N[C@H](C(=O)N[C@@H](CO)C(=O)N[C@H](Cc1c(F)c(F)c(F)c(F)c1F)C(=O)N1[C@H](C(=O)N[C@@H](CCCNC(=N)N)C(=O)O)C[C@@H]2CCCC[C@@H]21)C1Cc2ccccc2C1)C1Cc2ccccc2C1` [Compound B10216, DArg-Arg-Pro-DIgl-Gly-Igl-Ser-Df5f-Oic-Arg] showed a Kb [2] of 39.8 nM and a Kb [3, 4] of 158 nM.

`N=C(N)NCCC[C@@H](N)C(=O)N[C@@H](CCCNC(=N)N)C(=O)N1CCC[C@H]1C(=O)N1C[C@H](O)C[C@H]1C(=O)NCC(=O)N[C@H](C(=O)N[C@@H](CO)C(=O)N[C@H](Cc1c(F)c(F)c(F)c(F)c1F)C(=O)N[C@@H](Cc1cccs1)C(=O)N[C@@H](CCCNC(=N)N)C(=O)O)C1Cc2ccccc2C1` [Compound B10058, DArg-Arg-Pro-Hyp-Gly-Igl-Ser-Df5f-Thi-Arg] showed a Kb [2] of 6.31 nM and a Kb [3, 4] of 12.6 nM.

In the case of `N=C(N)NCCC[C@H](NC(=O)[C@@H]1C[C@@H]2CCCC[C@@H]2N1C(=O)[C@@H](Cc1c(F)c(F)c(F)c(F)c1F)NC(=O)[C@H](CO)NC(=O)[C@@H](NC(=O)CNC(=O)[C@@H]1C[C@@H](O)CN1C(=O)[C@@H]1CCCN1C(=O)[C@H](CCCNC(=N)N)NC(=O)[C@@H](CCCNC(=N)N)NC(=O)[C@H](CCCCN)NC(=O)CCCCCCCCCCC(=O)N[C@@H](CCCCN)C(=O)N[C@H](CCCNC(=N)N)C(=O)N[C@@H](CCCNC(=N)N)C(=O)N1CCC[C@H]1C(=O)N1C[C@H](O)C[C@H]1C(=O)NCC(=O)N[C@H](C(=O)N[C@@H](CO)C(=O)N[C@H](Cc1c(F)c(F)c(F)c(F)c1F)C(=O)N1[C@H](C(=O)N[C@@H](CCCNC(=N)N)C(=O)O)C[C@@H]2CCCC[C@@H]21)C1Cc2ccccc2C1)C1Cc2ccccc2C1)C(=O)O` [Compound B10158, αDDD-(Lys-Darg-Arg-Pro-Hyp-Gly-Igl-Ser-Df5f-Oic-Arg)2], the Kb [2] is reported as 3.16 nM and the Kb [3, 4] is reported as 10 nM.

With `N=C(N)NCCC[C@@H](N)C(=O)N[C@@H](CCCNC(=N)N)C(=O)N1CCC[C@H]1C(=O)N1C[C@H](O)C[C@H]1C(=O)NCC(=O)N[C@@H](Cc1cccs1)C(=O)N[C@@H](CO)C(=O)N1Cc2ccccc2C[C@@H]1C(=O)N[C@@H](Cc1c(F)c(F)c(F)c(F)c1F)C(=O)N[C@@H](CCCNC(=N)N)C(=O)O` [Compound B10168, DArg-Arg-Pro-Hyp-Gly-Thi-Ser-DTic-f5f-Arg] the “Uterus … as percent BK activity” value [2] was 4% and the Kb [3, 4] was 3160 nM.

With `N=C(N)NCCC[C@@H](N)C(=O)N[C@@H](CCCNC(=N)N)C(=O)N1CCC[C@H]1C(=O)N1C[C@H](O)C[C@H]1C(=O)NCC(=O)N[C@@H](Cc1cccs1)C(=O)N[C@@H](CO)C(=O)N[C@H](Cc1c(F)c(F)c(F)c(F)c1F)C(=O)N(CC(=O)N[C@@H](CCCNC(=N)N)C(=O)O)C1CCCCC1` [Compound B10208, DArg-Arg-Pro-Hyp-Gly-Thi-Ser-Df5f-NchG-Arg] the “Uterus … as percent BK activity” value ([2]; rat uterus, agonist activity) was 14.0% and the Kb [3, 5] was 2 nM.

With `N=C(N)NCCC[C@H](NC(=O)[C@@H]1C[C@@H]2CCCC[C@@H]2N1C(=O)[C@@H](Cc1c(F)c(F)c(F)c(F)c1F)NC(=O)[C@H](CO)NC(=O)[C@@H](NC(=O)CNC(=O)[C@@H]1C[C@@H](O)CN1C(=O)[C@@H]1CCCN1C(=O)[C@H](CCCNC(=N)N)NC(=O)[C@@H](CCCNC(=N)N)NC(=O)CN(CCCNC(=N)N)CCCNC(=N)N)C1Cc2ccccc2C1)C(=O)O` [Compound B10156, Gun2-bApg-DArg-Arg-Pro-Hyp-Gly-Igl-Ser-Df5f-Oic-Arg] the Kb [2] was 5.01 nM and the Kb [3, 4] was 12.6 nM.

Molecule `N=C(N)NCCC[C@@H](N)C(=O)N[C@@H](CCCNC(=N)N)C(=O)N1CCC[C@H]1C(=O)N1C[C@H](O)C[C@H]1C(=O)NCC(=O)N[C@@H](Cc1cccs1)C(=O)N[C@@H](CO)C(=O)N[C@H](Cc1c(F)c(F)c(F)c(F)c1F)C(=O)N[C@@H](Cc1c(F)c(F)c(F)c(F)c1F)C(=O)N[C@@H](CCCNC(=N)N)C(=O)O` [Compound B10166, DArg-Arg-Pro-Hyp-Gly-Thi-Ser-Df5f-f5f-Arg] has a Kb [2] of 7.94 nM and a Kb [3, 4] of 10 nM.

`CC(C)C[C@H](NC(=O)[C@@H](Cc1c(F)c(F)c(F)c(F)c1F)NC(=O)[C@H](CO)NC(=O)[C@@H](NC(=O)CNC(=O)[C@@H]1C[C@@H](O)CN1C(=O)[C@@H]1CCCN1C(=O)[C@H](CCCNC(=N)N)NC(=O)[C@H](N)CCCNC(=N)N)C1Cc2ccccc2C1)C(=O)N[C@@H](CCCNC(=N)N)C(=O)O` [Compound B10174, DArg-Arg-Pro-Hyp-Gly-Igl-Ser-Df5f-Leu-Arg] (H-[dR]RP[Hyp]G[Igl]S[dPhe(F5)]LR-OH; N-terminus and C-terminus assumed) gave a Kb [2] of 7.94 nM and a Kb [3, 4] of 6.31 nM.

`N=C(N)NCCC[C@@H](N)C(=O)N[C@@H](CCCNC(=N)N)C(=O)N1CCC[C@H]1C(=O)N1C[C@H](O)C[C@H]1C(=O)NCC(=O)N[C@@H](Cc1cccs1)C(=O)N[C@@H](CO)C(=O)N[C@H](Cc1c(F)c(F)c(F)c(F)c1F)C(=O)N(CC(=O)N[C@@H](CCCNC(=N)N)C(=O)O)C1CCCCCC1` [Compound B10204, DArg-Arg-Pro-Hyp-Gly-Thi-Ser-Df5f-Nc7G-Arg] showed a Kb [2] of 631 nM and a Kb [3, 4] of 12.6 nM.

Molecule `N=C(N)NCCC[C@H](NC(=O)[C@H](Cc1c(F)c(F)c(F)c(F)c1F)NC(=O)[C@@H](Cc1c(F)c(F)c(F)c(F)c1F)NC(=O)[C@H](CO)NC(=O)[C@@H](NC(=O)CNC(=O)[C@@H]1C[C@@H](O)CN1C(=O)[C@@H]1CCCN1C(=O)[C@H](CCCNC(=N)N)NC(=O)[C@@H](N)CCCNC(=N)N)C1Cc2ccccc2C1)C(=O)O` [Compound B10230, Arg-Arg-Pro-Hyp-Gly-Igl-Ser-Df5f-f5f-Arg] has a Kb [2] of 1580 nM and a Kb [3, 4] of 20 nM.
